Results published in patent US10584115B2, “Substituted pyridine and pyrazine BMI-1 inhibitors” (PTC Therapeutics, Inc., priority 2013, dated 2020).

Each molecule was assayed on Bmi-1 protein (assay: Sandwich ELISA Assay (Bmi-1 protein level in HT-1080 cells after compound treatment)). Conditions: Table 1, Bmi-1 sandwich ELISA, read-out: ELISA EC50 value for Bmi-1 protein.
Assay type: cell-based
Outline: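 HT-1080 cells exposed to compounds for 40–48 h at 37 °C (0.5% DMSO final), then lysed. Bmi-1 in lysates measured by sandwich ELISA (mouse monoclonal capture, rabbit anti-Bmi-1 detection, HRP anti-rabbit, TMB), read at OD450 with OD570 reference against a recombinant Bmi-1 standard curve (0–8000 pg/mL).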
With `Cc1nc2ccc(F)cc2n1-c1cccc(Nc2ccc(OC(F)F)cc2)n1` [Cpd 584, N-[4-(difluoromethoxy)phenyl]-6-(6-fluoro-2-methyl-1H-benzimidazol-1-yl)pyridin-2-amine] the EC50 was 10 to 100 nM.
`Cc1nc2ccc(F)cc2n1-c1cccc(Nc2ccc(OC(F)(F)F)cc2)n1` [Cpd 585, 6-(6-fluoro-2-methyl-1H-benzimidazol-1-yl)-N-[4-(trifluoromethoxy)phenyl]pyridin-2-amine] gave an EC50 of 100 to 3000 nM.
In the case of `COc1ccc(Nc2cccc(-n3c(C)nc4ccc(F)cc43)n2)cc1` [Cpd 586, 6-(6-fluoro-2-methyl-1H-benzimidazol-1-yl)-N-(4-methoxyphenyl)pyridin-2-amine], the EC50 is reported as 1 to 10 nM.
`Cc1ccc(Nc2cccc(-n3c(C)nc4ccc(F)cc43)n2)cc1` [Cpd 587, 6-(6-fluoro-2-methyl-1H-benzimidazol-1-yl)-N-(4-methylphenyl)pyridin-2-amine] gave an EC50 of 1 to 10 nM.
`Cc1nc2ccccc2n1-c1cccc(Nc2ccc(Cl)cc2)n1` [Cpd 606, N-(4-chlorophenyl)-6-(2-methyl-1H-benzimidazol-1-yl)pyridin-2-amine] gave an EC50 of 100 to 3000 nM.
Molecule `Cc1nc2ccc(F)cc2n1-c1cccc(Nc2ccc(C(F)(F)F)cc2)n1` [Cpd 607, 6-(6-fluoro-2-methyl-1H-benzimidazol-1-yl)-N-[4-(trifluoromethyl)phenyl]pyridin-2-amine] has an EC50 of 10 to 100 nM.
Molecule `Cc1nc2ccc(F)cc2n1-c1cccc(Nc2ccc(Cl)cc2)n1` [Cpd 608, N-(4-chlorophenyl)-6-(6-fluoro-2-methyl-1H-benzimidazol-1-yl)pyridin-2-amine] has an EC50 of 10 to 100 nM.
For `Cc1nc2ccc(F)cc2n1-c1cccc(Nc2ccc(C#N)cc2)n1` [Cpd 609, 4-{[6-(6-fluoro-2-methyl-1H-benzimidazol-1-yl)pyridin-2-yl]amino}benzonitrile], the EC50 was 100 to 3000 nM.
With `COC(=O)c1ccc(Nc2cccc(-n3c(C)nc4ccc(F)cc43)n2)cc1` [Cpd 610, methyl 4-{[6-(6-fluoro-2-methyl-1H-benzimidazol-1-yl)pyridin-2-yl]amino}benzoate] the EC50 was 10 to 100 nM.
For `Cc1ccc(Nc2cc(C#N)cc(-n3c(C)nc4ccccc43)n2)cc1` [Cpd 634, 2-(2-methyl-1H-benzimidazol-1-yl)-6-[(4-methylphenyl)amino]pyridine-4-carbonitrile], the EC50 was 10 to 100 nM.
Molecule `COc1ccc2nc(C(F)(F)F)c(-c3cncc(Nc4ccccc4)n3)n2c1` [Cpd 678, 6-[6-methoxy-2-(trifluoromethyl)imidazo[1,2-a]pyridin-3-yl]-N-phenylpyrazin-2-amine] has an EC50 of 10 to 100 nM.
`COc1ccc2nc(C(F)(F)F)c(-c3cncc(Nc4ccc(Cl)cc4)n3)n2c1` [Cpd 679, N-(4-chlorophenyl)-6-[6-methoxy-2-(trifluoromethyl)imidazo[1,2-a]pyridin-3-yl]pyrazin-2-amine] gave an EC50 of 10 to 100 nM.
With `COc1ccc2nc(C(F)(F)F)c(-c3cncc(Nc4ccc(Br)cc4)n3)n2c1` [Cpd 680, N-(4-bromophenyl)-6-[6-methoxy-2-(trifluoromethyl)imidazo[1,2-a]pyridin-3-yl]pyrazin-2-amine] the EC50 was 10 to 100 nM.
`COc1ccc2nc(C(F)(F)F)c(-c3cncc(Nc4ccc(F)cc4)n3)n2c1` [Cpd 681, N-(4-fluorophenyl)-6-[6-methoxy-2-(trifluoromethyl)imidazo[1,2-a]pyridin-3-yl]pyrazin-2-amine] showed an EC50 of 100 to 3000 nM.
With `COc1ccc2nc(C(F)(F)F)c(-c3cncc(Nc4ccc(C)cc4)n3)n2c1` [Cpd 682, 6-[6-methoxy-2-(trifluoromethyl)imidazo[1,2-a]pyridin-3-yl]-N-(4-methylphenyl)pyrazin-2-amine] the EC50 was 100 to 3000 nM.
For `COc1ccc(Nc2cncc(-n3cnc4ccccc43)n2)cc1` [compound 1, 6-(1H-benzimidazol-1-yl)-N-(4-methoxyphenyl)pyrazin-2-amine], the EC50 was 10 to 100 nM.
Work on `Ic1ccc(Nc2cncc(-n3cnc4ccccc43)n2)cc1` [compound 2, 6-(1H-benzimidazol-1-yl)-N-(4-iodophenyl)pyrazin-2-amine] yielded an EC50 of 10 to 100 nM.
With `COc1ccc(Nc2cncc(-n3c(C)nc4ccccc43)n2)cc1F` [compound 12, N-(3-fluoro-4-methoxyphenyl)-6-(2-methyl-1H-benzimidazol-1-yl)pyrazin-2-amine] the EC50 was < 1 nM.
In the case of `Cc1nc2ccccc2n1-c1cncc(Nc2ccc(C(F)(F)F)cc2)n1` [compound 13, 6-(2-methyl-1H-benzimidazol-1-yl)-N-[4-(trifluoromethyl)phenyl]pyrazin-2-amine], the EC50 is reported as 10 to 100 nM.
With `FC(F)(F)c1ccc(Nc2cncc(-n3c(C(F)(F)F)nc4ccccc43)n2)cc1` [compound 14, 6-[2-(trifluoromethyl)-1H-benzimidazol-1-yl]-N-[4-(trifluoromethyl)phenyl]pyrazin-2-amine] the EC50 was 100 to 3000 nM.
`FC(F)(F)c1ccc(Nc2cncc(-c3cccc4cc(C(F)(F)F)nn34)n2)cc1` [compound 15, N-[4-(trifluoromethyl)phenyl]-6-[2-(trifluoromethyl)pyrazolo[1,5-a]pyridin-7-yl]pyrazin-2-amine] gave an EC50 of 10 to 100 nM.
With `Cc1nc2ccccc2n1-c1cncc(Nc2ccc(OC(F)(F)F)cc2)n1` [compound 19, 6-(2-methyl-1H-benzimidazol-1-yl)-N-[4-(trifluoromethoxy)phenyl]pyrazin-2-amine] the EC50 was 100 to 3000 nM.
With `Cc1nc2ccccc2n1-c1cncc(Nc2ccc(Cl)cc2)n1` [compound 20, N-(4-chlorophenyl)-6-(2-methyl-1H-benzimidazol-1-yl)pyrazin-2-amine] the EC50 was 10 to 100 nM.
Molecule `Cc1nc2ccccc2n1-c1cncc(Nc2ccc(OC(F)F)cc2)n1` [compound 21, N-[4-(difluoromethoxy)phenyl]-6-(2-methyl-1H-benzimidazol-1-yl)pyrazin-2-amine] has an EC50 of 1 to 10 nM.
For `COc1ccc(Nc2cncc(-n3c(C)nc4ccccc43)n2)cc1Cl` [compound 28, N-(3-chloro-4-methoxyphenyl)-6-(2-methyl-1H-benzimidazol-1-yl)pyrazin-2-amine], the EC50 was 1 to 10 nM.
With `COc1ccc(Nc2nc(-c3c(C(F)(F)F)nc4ccccn34)ccc2C#N)cc1` [compound 41, 2-[(4-methoxyphenyl)amino]-6-[2-(trifluoromethyl)imidazo[1,2-a]pyridin-3-yl]pyridine-3-carbonitrile] the EC50 was 100 to 3000 nM.
In the case of `COc1ccc(Nc2cncc(-n3c(C(F)(F)F)nc4ccccc43)n2)cc1` [compound 43, N-(4-methoxyphenyl)-6-[2-(trifluoromethyl)-1H-benzimidazol-1-yl]pyrazin-2-amine], the EC50 is reported as 1 to 10 nM.
Work on `FC(F)Oc1ccc(Nc2cncc(-n3c(C(F)(F)F)nc4ccccc43)n2)cc1` [compound 44, N-[4-(difluoromethoxy)phenyl]-6-[2-(trifluoromethyl)-1H-benzimidazol-1-yl]pyrazin-2-amine] yielded an EC50 of 10 to 100 nM.
Work on `CCc1nc2ccccc2n1-c1cncc(Nc2ccc(C(F)(F)F)cc2)n1` [compound 51, 6-(2-ethyl-1H-benzimidazol-1-yl)-N-[4-(trifluoromethyl)phenyl]pyrazin-2-amine] yielded an EC50 of 1 to 10 nM.
`CC(C)c1nc2ccccc2n1-c1cncc(Nc2ccc(C(F)(F)F)cc2)n1` [compound 52, 6-[2-(propan-2-yl)-1H-benzimidazol-1-yl]-N-[4-(trifluoromethyl)phenyl]pyrazin-2-amine] showed an EC50 of 10 to 100 nM.
Molecule `CCCc1nc2ccccc2n1-c1cncc(Nc2ccc(C(F)(F)F)cc2)n1` [compound 53, 6-(2-propyl-1H-benzimidazol-1-yl)-N-[4-(trifluoromethyl)phenyl]pyrazin-2-amine] has an EC50 of 10 to 100 nM.
`CSc1nc2ccccc2n1-c1cncc(Nc2ccc(C(F)(F)F)cc2)n1` [compound 54, 6-[2-(methylsulfanyl)-1H-benzimidazol-1-yl]-N-[4-(trifluoromethyl)phenyl]pyrazin-2-amine] showed an EC50 of 10 to 100 nM.
For `CNc1nc2ccccc2n1-c1cncc(Nc2ccc(C(F)(F)F)cc2)n1` [compound 61, N-methyl-1-(6-{[4-(trifluoromethyl)phenyl]amino}pyrazin-2-yl)-1H-benzimidazol-2-amine], the EC50 was 1 to 10 nM.
`FC(F)(F)Oc1ccc(Nc2cncc(-c3c(C(F)(F)F)nn4ccccc34)n2)cc1` [compound 63, N-[4-(trifluoromethoxy)phenyl]-6-[2-(trifluoromethyl)pyrazolo[1,5-a]pyridin-3-yl]pyrazin-2-amine] gave an EC50 of 10 to 100 nM.
For `COCc1nc2ccccc2n1-c1cncc(Nc2ccc(C(F)(F)F)cc2)n1` [compound 65, 6-[2-(methoxymethyl)-1H-benzimidazol-1-yl]-N-[4-(trifluoromethyl)phenyl]pyrazin-2-amine], the EC50 was 100 to 3000 nM.
In the case of `OCc1nc2ccccc2n1-c1cncc(Nc2ccc(C(F)(F)F)cc2)n1` [compound 66, [1-(6-{[4-(trifluoromethyl)phenyl]amino}pyrazin-2-yl)-1H-benzimidazol-2-yl]methanol], the EC50 is reported as 100 to 3000 nM.
In the case of `CSc1ccc(Nc2cncc(-c3c(C(F)(F)F)nc4ccccn34)n2)cc1` [compound 69, N-[4-(methylsulfanyl)phenyl]-6-[2-(trifluoromethyl)imidazo[1,2-a]pyridin-3-yl]pyrazin-2-amine], the EC50 is reported as 1 to 10 nM.
In the case of `FC(F)Oc1ccc(Nc2cncc(-c3c(C(F)(F)F)nn4ccccc34)n2)cc1` [compound 72, N-[4-(difluoromethoxy)phenyl]-6-[2-(trifluoromethyl)pyrazolo[1,5-a]pyridin-3-yl]pyrazin-2-amine], the EC50 is reported as 1 to 10 nM.
`Cc1nc2ccccc2n1-c1cncc(Nc2ccc(C(F)(F)F)nc2)n1` [compound 73, 6-(2-methyl-1H-benzimidazol-1-yl)-N-[6-(trifluoromethyl)pyridin-3-yl]pyrazin-2-amine] gave an EC50 of 10 to 100 nM.
In the case of `COc1ccc(Nc2cncc(-c3c(C(F)(F)F)nn4ccccc34)n2)cc1` [compound 74, N-(4-methoxyphenyl)-6-[2-(trifluoromethyl)pyrazolo[1,5-a]pyridin-3-yl]pyrazin-2-amine], the EC50 is reported as < 1 nM.

Same assay, conditions: read-out: ELISA EC50 value for Bmi-1 protein, Table 1, Bmi-1 sandwich ELISA
`FC(F)(F)c1ccc(Nc2cncc(-c3c(C(F)(F)F)nn4ccccc34)n2)cc1` [compound 62, N-[4-(trifluoromethyl)phenyl]-6-[2-(trifluoromethyl)pyrazolo[1,5-a]pyridin-3-yl]pyrazin-2-amine] was tested, and the EC50 was 10 to 100 nM.
